Assay results taken from patent US20260258003A1, “SLACK-ACTIVATING COMPOUNDS AND THEIR MEDICAL USE” (Johann Wolfgang Goethe-Universität Frankfurt am Main, priority 2023, published 2026).

Columns and labels:
muscarine M3 receptor = target: T1, muscarine M3 receptor (Homo sapiens, UniProt P20309); assay: SafetyScreen44 binding; conditions: substantial = higher than 50%
T1 construct: Eurofins SafetyScreen44

Na+ channel = assay: SafetyScreen44 binding; set-up: species or system rat; conditions: 10 μM; substantial = higher than 50%
[1] = target: T2, norepinephrine transporter (NET) (Homo sapiens, UniProt P23975); assay: SafetyScreen44 binding; conditions: substantial = higher than 50%
T2 construct: Eurofins SafetyScreen44
T2 sequence (P23975 whole entry): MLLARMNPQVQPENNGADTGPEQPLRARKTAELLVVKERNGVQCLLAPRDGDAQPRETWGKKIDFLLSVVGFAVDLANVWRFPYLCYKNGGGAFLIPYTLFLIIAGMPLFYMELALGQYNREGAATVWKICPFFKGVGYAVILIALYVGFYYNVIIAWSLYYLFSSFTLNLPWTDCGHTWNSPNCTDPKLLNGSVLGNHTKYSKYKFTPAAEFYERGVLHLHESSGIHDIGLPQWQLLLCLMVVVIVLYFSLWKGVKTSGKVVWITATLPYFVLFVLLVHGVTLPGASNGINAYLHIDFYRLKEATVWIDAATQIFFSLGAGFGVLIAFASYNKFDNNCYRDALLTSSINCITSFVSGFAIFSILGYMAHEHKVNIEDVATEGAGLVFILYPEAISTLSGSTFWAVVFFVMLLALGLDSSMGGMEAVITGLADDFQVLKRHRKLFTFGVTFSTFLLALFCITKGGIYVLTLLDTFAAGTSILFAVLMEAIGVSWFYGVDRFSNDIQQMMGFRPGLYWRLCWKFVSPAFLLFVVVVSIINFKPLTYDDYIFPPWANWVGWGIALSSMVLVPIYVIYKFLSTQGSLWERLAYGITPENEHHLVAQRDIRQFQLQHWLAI

[2] = Microsomal stability assay in liver microsomes; assay type: in vitro ADME, Sprague-Dawley rats; conditions: 10 μM, rat liver microsomes
Description: For Compound 10, the metabolic stability in liver microsomes as shown in Table 4 was determined by the following assay. The test compound was dissolved in DMSO (1 mM). The solubilized test compound (5 μL, final concentration 10 μM) was preincubated at 37° C. in 432 μL of phosphate buffer (0.1 M, pH=7.4) together with 50 μL of NADPH regenerating system (30 mM glucose-6-phosphate, 4 U/mL glucose 6-phosphate dehydrogenase, 10 mM NADP, 30 mM MgCl2). After 5 min, the reaction was started by the addition of 13 μL of microsome mix from the liver of Sprague-Dawley rats (Invitrogen; 20 mg protein/mL in 0.1 M phosphate buffer) in a shaking water bath at 37° C. The reaction was stopped by adding 500 μL of ice-cold methanol at 0, 15, 30, and 60 min. The samples were centrifuged at 5000×g for 5 min at 4° C., and the test compound was quantified from the supernatants by HPLC: the composition of the mobile phase was adapted to the test compound in a range of MeOH 40-90% and water (0.1% formic acid) 10-60%. Flow rate: 1 mL/min; stationary phase: Purospher STAR, RP18, 5 μm, 125×4; precolumn: Purospher STAR, RP18, 5 μm, 4×4; detection wavelength: 254 and 280 nm; injection volume: 50 μL. Control samples were performed to check the test compound's stability in the reaction mixture. First control was without NADPH, which is needed for the enzymatic activity of the microsomes, second control was with inactivated microsomes (incubated for 20 min at 90° C.), and third control was without the test compound (to determine the baseline). The amounts of the test compound were quantified by an external calibration curve. Data are expressed as the mean±SEM remaining compound from three independent experiments. In vitro half-life was calculated by a logarithmic-linear transformation of the remaining amounts of nonmetabolized test compound versus time.

[3] = target: T3, dopamine receptor D1 (D1) (Homo sapiens, UniProt P21728); assay: SafetyScreen44 binding; conditions: 10 μM; substantial = higher than 50%
T3 construct: Eurofins SafetyScreen44
T3 sequence (P21728 whole entry): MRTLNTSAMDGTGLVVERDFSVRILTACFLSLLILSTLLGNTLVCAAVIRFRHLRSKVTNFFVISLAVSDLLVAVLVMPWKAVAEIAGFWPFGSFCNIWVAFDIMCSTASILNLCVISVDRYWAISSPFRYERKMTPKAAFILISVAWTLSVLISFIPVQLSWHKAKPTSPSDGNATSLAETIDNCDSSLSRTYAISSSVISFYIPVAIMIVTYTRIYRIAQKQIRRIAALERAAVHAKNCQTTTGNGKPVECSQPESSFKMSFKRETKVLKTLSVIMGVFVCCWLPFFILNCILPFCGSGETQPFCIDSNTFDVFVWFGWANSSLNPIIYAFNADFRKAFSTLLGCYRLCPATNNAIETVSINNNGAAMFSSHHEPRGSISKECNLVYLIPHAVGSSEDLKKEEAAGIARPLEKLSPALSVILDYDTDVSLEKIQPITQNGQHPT
Description: (§1) Compound enzyme inhibition effect was calculated as a % inhibition of control enzyme activity. […] Measurements were performed in duplicate.

[4] = target: T4, histamine H1 receptor (H1) (Homo sapiens, UniProt P35367); assay: SafetyScreen44 binding; conditions: 10 μM; substantial = higher than 50%
T4 construct: Eurofins SafetyScreen44
T4 sequence (P35367 whole entry): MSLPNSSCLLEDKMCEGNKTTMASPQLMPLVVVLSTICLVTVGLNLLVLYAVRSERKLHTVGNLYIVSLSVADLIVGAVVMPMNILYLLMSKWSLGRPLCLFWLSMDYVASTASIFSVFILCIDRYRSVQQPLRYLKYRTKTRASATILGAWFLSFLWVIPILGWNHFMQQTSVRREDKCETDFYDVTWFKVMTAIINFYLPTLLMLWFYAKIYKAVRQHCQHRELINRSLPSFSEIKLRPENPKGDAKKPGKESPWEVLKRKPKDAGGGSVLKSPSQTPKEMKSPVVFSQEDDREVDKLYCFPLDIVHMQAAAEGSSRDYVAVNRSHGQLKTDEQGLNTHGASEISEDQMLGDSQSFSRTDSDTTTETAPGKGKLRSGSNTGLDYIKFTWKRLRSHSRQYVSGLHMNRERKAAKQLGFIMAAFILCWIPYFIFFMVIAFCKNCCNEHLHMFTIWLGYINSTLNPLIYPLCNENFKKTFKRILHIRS
Description: as §1

[5] = tested on: neuropathic pain behavior of mice; assay: Spared nerve injury (SNI) model of neuropathic pain; assay type: in vivo; conditions: i.p., 28 days after SNI surgery, assessed over 3 h
Description: FIG. 8: Compound 6 and Compound 10 inhibit histamine-independent acute itch behavior and neuropathic pain behavior. (A), (B), Motor function. […] Dotted lines indicate cutoff times. * p<0.05, *** p<0.001, Kruskal-Wallis test. (C)-(G), Acute itch behavior. Compound 6, Compound 10 or vehicle were i.p. administered and 15 min thereafter different pruritogens were s.c. administered into the nape of the neck and the number of scratching bouts was counted over 30 min. In each panel, the time course of scratching behavior is shown on the left and the sum of scratching bouts in 30 min is presented on the right. (C), Compound 6 and Compound 10 inhibited the scratching behavior induced by chloroquine in a dose-dependent manner. (D) Compound 6 inhibited the chloroquine-induced scratching behavior in WT mice but not in Slack^−/− littermates. (E) Compound 6 ameliorated the scratching behavior induced by SLIGRL, (F) but not by histamine. n=7-8 per group. […] Twenty-eight days thereafter, mechanical hypersensitivity of the affected hindpaw (determined using a Dynamic Plantar Aesthesiometer), which is indicated by decreased paw withdrawal latency time, was detected in all mice. Then Compound 10 or vehicle were i.p. administered and the mechanical sensitivity was assessed over 3 h. […]

[6] = tested on: MC903-induced persistent itch behavior of mice; assay: MC903 model of persistent itch (skin inflammation); assay type: in vivo; conditions: i.p. at day 8, vs vehicle
Description: Similarly, the effect of Compound 6 was also examined in the MC903 model of skin inflammation, which has some characteristics of allergic contact dermatitis and atopic dermatitis^32.
The fur on the dorsolateral aspect of the neck was shaved under brief isoflurane anesthesia. Five days thereafter, 20 μL MC903 (0.2 mM; Calcipotriol, Tocris) solved in absolute ethanol was applied to the skin at the back of the neck in brief anesthesia for 7 consecutive days. On day 8, mice were habituated for 30 min in separate plexiglass cylinders (30 cm diameter). Compounds or vehicle (10% 2-hydroxypropyl-β-cyclodextrine in 0.9% saline) were i.p. administered, and 15 min thereafter spontaneous scratching was recorded over 30 min by videotaping (FIG. 10D). […] These findings are important, because they indicate that Slack activators can ameliorate pruritus that has already established.

T1 sequence (P20309 whole entry): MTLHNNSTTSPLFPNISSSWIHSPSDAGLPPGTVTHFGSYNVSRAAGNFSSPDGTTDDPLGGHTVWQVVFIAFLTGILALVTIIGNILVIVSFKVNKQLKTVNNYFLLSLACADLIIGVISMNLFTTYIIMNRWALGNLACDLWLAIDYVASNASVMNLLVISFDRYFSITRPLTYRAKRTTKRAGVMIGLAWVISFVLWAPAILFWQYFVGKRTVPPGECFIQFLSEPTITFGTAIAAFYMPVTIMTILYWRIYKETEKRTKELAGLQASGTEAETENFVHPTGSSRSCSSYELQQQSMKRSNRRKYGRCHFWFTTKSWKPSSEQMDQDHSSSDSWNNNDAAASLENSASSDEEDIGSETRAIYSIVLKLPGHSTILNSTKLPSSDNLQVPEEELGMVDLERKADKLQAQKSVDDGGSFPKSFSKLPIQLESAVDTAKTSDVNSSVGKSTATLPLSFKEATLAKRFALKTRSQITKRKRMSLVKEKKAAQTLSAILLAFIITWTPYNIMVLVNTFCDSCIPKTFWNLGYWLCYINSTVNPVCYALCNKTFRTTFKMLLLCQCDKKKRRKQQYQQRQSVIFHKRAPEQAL

| Metabolic stability (remaining compound) ([2]; 15 min) [%] | Metabolic stability (remaining compound) ([2]; 30 min) [%] | Metabolic stability (remaining compound) ([2]; 60 min) [%] | SMILES | inhibition at 10 µM (muscarine M3 receptor) [%] | binding inhibition, Na+ channel (Na+ channel) | inhibition at 10 µM [1] [%] | binding inhibition, D1 [3] | binding inhibition, H1 [4] | neuropathic pain behavior (mechanical hypersensitivity, paw withdrawal latency) [5] | binding inhibition, NET ([1]; 10 μM) | head shaking, MC903 model [6] | scratching, MC903 model [6] |
| --- | --- | --- | --- | --- | --- | --- | --- | --- | --- | --- | --- | --- |
| – | – | – | CN1CCN(C2=Nc3ccccc3Oc3ccc(Cl)cc32)CC1 [Loxapine, 2-chloro-11-(4-methylpiperazin-1-yl)dibenzo[b,f][1,4]oxazepine, reference compound] | > 50 | higher than 50% | > 50 | – | – | – | – | – | – |
| 55 | 35 | 16 | O=c1nc(CN2CCN(C3=Nc4ccccc4Oc4ccc(Cl)cc43)CC2)[nH][nH]1 [Compound 10, 5-((4-(2-Chlorodibenzo[b,f][1,4]oxazepin-11-yl)piperazin-1-yl)methyl)-1,2-dihydro-3H-1,2,4-triazol-3-one] | – | – | – | substantial binding inhibition | substantial binding inhibition | inhibited the neuropathic pain behavior | – | – | – |
| – | – | – | O=C(O)COCCN1CCN(C2=Nc3ccccc3Oc3ccc(Cl)cc32)CC1 [Compound 6, 2-(2-(4-(2-Chlorodibenzo[b,f][1,4]oxazepin-11-yl)piperazin-1-yl)ethoxy) acetic acid] | – | – | – | substantial binding | substantial binding | – | substantial binding | significantly ameliorated | significantly ameliorated |
